Measured values from patent US6339160B1 (priority 1997, dated 2002).

How the values were obtained:
[1] = target: T1, Collagenase from neutrophiles (MMP-8) (Homo sapiens, UniProt P22894); test: Inhibition of human enzyme Collagenase from neutrophiles (MMP-8), fluorescent substrate; format: biochemical; details: expressed qualitatively; enzyme activated with p-aminomercuryacetate
T1 construct: G. Murphy (Strangeways Labs., Cambridge, UK); host or cells: human cell cultures
Method: (§1) The snythetized compounds were also tested on the enzyme of human orgin Gelatinase A, known also as MMP-2 (Matrix Metalloproteinase n. 2). The pure enzyme, extracted from human cultures and obtained from Pro. G. Murphy (Strangeways Labs., Cambridge, UK), was first activated with p-amino-mercuryacetate, and proteolytic activity was evidentiated with the use of an artificial fluorescent substratum MCA-PRO-LEU-GLY-LEU-DPA-ALA-ARG-NH2 (Strangeways Labs.), in spectrofluorimeter Perkin Elmer L 50B fixed at 328 nm for excitation and 393 nm for emission. To test inhibitory activity, synthetized compounds were incubated for 3 hours at room temperature in the presence of the enzyme, before adding the substratum.
The new synthetized derivatives were also tested on another zinc-dependent metalloproteinase of human orgin: the Collagenase from neutrophiles, also known as MMP-8 (Matrix Metalloproteinase N. 8). The pure enzyme extracted from human cell cultures and obtained from Prof. G. Murphy (Strangeways Labs., Cambridge, UK), was activated with p-aminomercuryacetate (2 hours at 37° C.), and enzymatic activity was followed by the spectrofluorimeter in the same way as described in the previous chapter.

Adamalysin II = Adamalysin II (Crotalus adamanteus, UniProt P34179); test: biochemical
Gelatinase A (MMP-2) = target: T2, Gelatinase A (MMP-2) (Homo sapiens, UniProt P08253); test: Inhibition of the human enzyme Gelatinase A (MMP-2), fluorescent substrate; format: biochemical; details: expressed qualitatively; compounds incubated 3 hours at room temperature with enzyme before substrate
T2 construct: G. Murphy (Strangeways Labs., Cambridge, UK); host or cells: human cultures
T2 sequence (P08253 110-660): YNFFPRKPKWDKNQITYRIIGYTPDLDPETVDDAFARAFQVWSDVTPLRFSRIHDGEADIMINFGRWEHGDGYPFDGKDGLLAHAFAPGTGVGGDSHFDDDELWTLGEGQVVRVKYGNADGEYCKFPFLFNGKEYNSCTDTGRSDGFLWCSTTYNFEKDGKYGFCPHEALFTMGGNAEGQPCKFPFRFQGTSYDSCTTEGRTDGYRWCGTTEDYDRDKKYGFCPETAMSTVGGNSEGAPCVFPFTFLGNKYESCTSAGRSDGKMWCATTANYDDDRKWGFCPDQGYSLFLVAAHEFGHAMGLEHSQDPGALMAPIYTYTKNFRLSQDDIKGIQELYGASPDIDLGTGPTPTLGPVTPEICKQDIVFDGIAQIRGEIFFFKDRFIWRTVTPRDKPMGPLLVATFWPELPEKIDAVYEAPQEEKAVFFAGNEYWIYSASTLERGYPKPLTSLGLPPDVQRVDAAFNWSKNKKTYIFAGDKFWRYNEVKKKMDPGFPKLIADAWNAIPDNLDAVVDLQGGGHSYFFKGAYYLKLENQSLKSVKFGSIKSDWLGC
Method: as §1

Chain of Adamalysin II (P34179 whole entry, looked up): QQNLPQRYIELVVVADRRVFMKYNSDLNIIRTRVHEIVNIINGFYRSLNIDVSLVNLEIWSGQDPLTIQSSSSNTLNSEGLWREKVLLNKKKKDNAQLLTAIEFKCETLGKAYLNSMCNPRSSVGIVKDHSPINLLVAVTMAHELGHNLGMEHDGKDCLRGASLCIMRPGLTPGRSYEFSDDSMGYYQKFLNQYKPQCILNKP
T1 sequence (P22894 101-467): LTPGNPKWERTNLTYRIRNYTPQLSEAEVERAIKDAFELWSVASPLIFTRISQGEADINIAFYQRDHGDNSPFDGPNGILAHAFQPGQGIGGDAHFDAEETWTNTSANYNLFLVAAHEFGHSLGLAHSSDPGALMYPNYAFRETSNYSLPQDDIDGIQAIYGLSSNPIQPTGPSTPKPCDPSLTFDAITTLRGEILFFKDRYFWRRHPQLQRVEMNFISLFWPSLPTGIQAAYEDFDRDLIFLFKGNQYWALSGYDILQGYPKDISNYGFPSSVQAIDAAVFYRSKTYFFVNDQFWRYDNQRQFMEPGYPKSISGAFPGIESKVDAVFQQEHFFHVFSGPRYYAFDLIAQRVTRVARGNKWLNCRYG

| Structure (SMILES) | INHIBITION [1] | IC50 (Adamalysin II) | INHIBITION (Gelatinase A (MMP-2)) |
| --- | --- | --- | --- |
| CCOP(=O)(OCC)C(Cc1c[nH]c2ccccc12)NC(=O)[C@H](CC(C)C)NC(=O)c1ccco1 (stereo partly drawn) [Compound n.3a, N-[(furan-2-yl)carbonyl]-L-leucyne-(1)-phosphotryptophan diethylester] | Fair | 400 nM | Fair |
| CCOP(=O)(OCC)C(Cc1c[nH]c2ccccc12)NC(=O)[C@H](CC(C)C)NC(=O)c1ccc[nH]1 (stereo partly drawn) [Compound n.3b, N-[(Pyrrol-2-yl)carbonyl]-L-leucyl-(1)-phosphotryptophan diethylester] | Good | 220 nM | Good |
| CCOP(=O)(OCC)C(Cc1c[nH]c2ccccc12)NC(=O)[C@H](CC(C)C)NC(=O)[C@@H]1CCCN1C(=O)OCc1ccccc1 (stereo partly drawn) [Compound n.3c, N-benzyloxycarbonyl-L-pyrolyl-L-eucyl-(1)-phosphtryptophan diethylester] | Good | 22000 nM | Good |
| CCOP(=O)(OCC)C(Cc1c[nH]c2ccccc12)NC(=O)[C@H](CC(C)C)NC(=O)[C@@H]1CCC(=O)O1 (stereo partly drawn) [Compound n.3e, N-{[(S)-(5-oxo-tetrahydrofuran-2-yl)carbonyl]}-L-leucyl-(1)-phosphotryptophan diethylester] | Fair | 550 nM | Fair |
| CCOP(=O)(OCC)C(Cc1c[nH]c2ccccc12)NC(=O)[C@H](CC(C)C)NC(=O)[C@@H]1CSC(=O)N1 (stereo partly drawn) [Compound n.3f, N-{[(R)-(2-oxo-thiazolidine-4-yl)carbonyl]}-L-leucyl-(1)-phosphotryptophan diethylester] | Good | 1000 nM | Fair |
| CC(C)C[C@H](NC(=O)c1ccco1)C(=O)NC(Cc1c[nH]c2ccccc12)P(=O)(OCc1ccccc1)OCc1ccccc1 (stereo partly drawn) [Compound n.9, N-[(Furan-2-yl)carbonyl]-L-leucyl-(1)-phosphotryptophan dibenzylester] | Fair | 7200 nM | None |
